Patent US8686044B2, “Amide derivative, pest control agent containing the amide derivative, and use of the amide derivative” (Mitsui Chemicals Agro, Inc., priority 2008, dated 2014)

Tests used:
Type in all cases: in vivo
Plutella xylostella = experiment: Pesticidal test against Plutella xylostella (cabbage leaf dip); conditions: foliar, 144 h, concentration 1 ppm, 2-stage larvae, examined after 6 days, 25° C., read-out: pesticidal rate
Summary of the method: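 Second-stage larvae (5 per group, two replicates) were released onto air-dried cabbage leaf discs that had been immersed for 30 seconds in compound solution at a set concentration. Mortality was scored after 6 days at 25° C.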

Spodoptera litura = experiment: Pesticidal test against Spodoptera litura (cabbage leaf dip); conditions: foliar, 144 h, concentration 1 ppm, 2-stage larvae, examined after 6 days, 25° C., read-out: pesticidal rate
Summary of the method: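 Cabbage leaf pieces dipped 30 seconds in compound solution at a predetermined concentration and air-dried, then offered to second-stage larvae, five per group in two replicates. Held at 25° C. Living and dead larvae counted after 6 days.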

Adoxophyes honmai = experiment: Pesticidal test against Adoxophyes honmai (artificial feed dip); conditions: 144 h, 2-stage larvae, examined after 6 days, 25° C., read-out: pesticidal rate; for pest or weed control at 1 ppm: concentration 1 ppm
Protocol: (§1) Pesticidal Test against Adoxophyes honmai A thinly sliced artificial feed was immersed for 30 seconds in a chemical solution in which a test compound had been prepared at a predetermined concentration, and air-dried, and then put into a 7 cm polyethylene cup having a filter paper laid on the bottom thereof, and 2-stage larvae of Adoxophyes honmai were released. They were left to stand in a thermostatic chamber at 25° C., and the numbers of the living pests and the dead pests were examined after 6 days. The test was carried out with five larvae per group in two replicates. Further, the above compound (A) was used as a comparative compound.

Musca domestica = experiment: Pesticidal test against Musca domestica (petri dish dry film); conditions: 24 h, concentration 100 ppm, female adults, examined after 1 day, 25° C., read-out: pesticidal rate
Protocol: Pesticidal Test against Musca domestica
1 ml of an acetone solution in which a test compound had been prepared at a predetermined concentration was added dropwise to a petri dish having a diameter of 9 cm, and air-dried, and then the female adults of Musca domestica were released and the petri dish was capped. They were left to stand in a thermostatic chamber at 25° C., and the numbers of the living pests and the dead pests were examined after 1 day. The test was carried out with five larvae per group in two replicates.

Helicoverpa armigera = experiment: Pesticidal test against Helicoverpa armigera (cabbage leaf disk dip); conditions: foliar, 72 h, concentration 1 ppm, 2-stage larvae, examined after 3 days, 25° C., read-out: pesticidal rate
Protocol: as §1, with “Helicoverpa armigera” for “Adoxophyes honmai”, “cabbage leaf disk” for “thinly sliced artificial feed”, “air-dried. The leaf disk was” for “air-dried, and then”, “6-hole plastic” for “7 cm polyethylene”, “released with one insect being released per hole.” for “released.”, “3” for “6”

Laodelphax striatellus = experiment: Pesticidal test against Laodelphax striatellus (rice seedling spray); conditions: 144 h, concentration 100 ppm, 3-stage larvae, examined after 6 days, 25° C., read-out: pesticidal rate
Summary of the method: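 Rice seedlings sprayed with 2.5 ml acetone solution of compound at a predetermined concentration, air-dried, then infested with third-stage Laodelphax striatellus larvae in capped water-containing tubes at 25 °C. Living and dead insects counted after 6 days; ten larvae per group, two replicates.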

Choristoneura magnanima = experiment: Pesticidal test against Choristoneura magnanima (artificial feed dip); conditions: 144 h, 2-stage larvae, examined after 6 days, 25° C., read-out: pesticidal rate; for pest or weed control at 1 ppm: concentration 1 ppm
Protocol: as §1, with “Choristoneura magnanima” for “Adoxophyes honmai”

O=C(Nc1cccc(C(=O)Nc2c(Br)cc(C(F)(C(F)(F)F)C(F)(F)C(F)(F)F)cc2C(F)(F)F)c1)c1cccc(F)c1 (stereo not drawn) [6-348]
≥ 70%: pest or weed control at 1 ppm (Plutella xylostella) | pest or weed control at 1 ppm (Spodoptera litura) | pest or weed control at 1 ppm (Adoxophyes honmai) | pest or weed control at 100 ppm (Musca domestica) | pest or weed control at 1 ppm (Helicoverpa armigera)

N#Cc1ccc(C(=O)Nc2cccc(C(=O)Nc3c(I)cc(C(F)(C(F)(F)F)C(F)(F)C(F)(F)F)cc3C(F)(F)F)c2)cc1 (stereo not drawn) [6-523]
≥ 70%: pest or weed control at 1 ppm (Plutella xylostella) | pest or weed control at 1 ppm (Spodoptera litura) | pest or weed control at 10 ppm (Adoxophyes honmai; concentration 10 ppm) | pest or weed control at 100 ppm (Musca domestica) | pest or weed control at 1 ppm (Helicoverpa armigera)

N#Cc1ccc(C(=O)Nc2cccc(C(=O)Nc3c(Br)cc(C(F)(C(F)(F)F)C(F)(F)C(F)(F)F)cc3C(F)(F)F)c2F)cc1 (stereo not drawn) [6-1673]
≥ 70%: pest or weed control at 1 ppm (Plutella xylostella) | pest or weed control at 100 ppm (Laodelphax striatellus) | pest or weed control at 1 ppm (Spodoptera litura) | pest or weed control at 1 ppm (Choristoneura magnanima) | pest or weed control at 100 ppm (Musca domestica) | pest or weed control at 1 ppm (Helicoverpa armigera)

N#Cc1ccc(C(=O)Nc2cccc(C(=O)Nc3c(I)cc(C(F)(C(F)(F)F)C(F)(F)C(F)(F)F)cc3C(F)(F)F)c2F)cc1 (stereo not drawn) [6-1829]
≥ 70%: pest or weed control at 1 ppm (Plutella xylostella) | pest or weed control at 100 ppm (Laodelphax striatellus) | pest or weed control at 1 ppm (Spodoptera litura) | pest or weed control at 1 ppm (Choristoneura magnanima) | pest or weed control at 100 ppm (Musca domestica) | pest or weed control at 1 ppm (Helicoverpa armigera)

CN(C(=O)c1cccc(C#N)c1)c1cccc(C(=O)Nc2c(Br)cc(C(F)(C(F)(F)F)C(F)(F)C(F)(F)F)cc2Br)c1F (stereo not drawn) [7-1202]
≥ 70%: pest or weed control at 1 ppm (Plutella xylostella) | pest or weed control at 100 ppm (Laodelphax striatellus) | pest or weed control at 1 ppm (Spodoptera litura) | pest or weed control at 1 ppm (Adoxophyes honmai)

O=C(Nc1cccc(C(=O)Nc2c(I)cc(C(F)(C(F)(F)F)C(F)(F)C(F)(F)F)cc2I)c1F)c1ccc(F)cc1 (stereo not drawn) [6-1341]
≥ 70%: pest or weed control at 1 ppm (Plutella xylostella) | pest or weed control at 100 ppm (Laodelphax striatellus) | pest or weed control at 1 ppm (Spodoptera litura) | pest or weed control at 1 ppm (Adoxophyes honmai) | pest or weed control at 100 ppm (Musca domestica) | pest or weed control at 1 ppm (Helicoverpa armigera)

CN(C(=O)c1ccccc1)c1cccc(C(=O)Nc2c(I)cc(C(F)(C(F)(F)F)C(F)(F)C(F)(F)F)cc2I)c1F (stereo not drawn) [7-1338]
≥ 70%: pest or weed control at 1 ppm (Plutella xylostella) | pest or weed control at 100 ppm (Laodelphax striatellus) | pest or weed control at 1 ppm (Spodoptera litura) | pest or weed control at 1 ppm (Adoxophyes honmai) | pest or weed control at 100 ppm (Musca domestica) | pest or weed control at 1 ppm (Helicoverpa armigera)

O=C(Nc1cccc(C(=O)Nc2c(I)cc(C(F)(C(F)(F)F)C(F)(F)C(F)(F)F)cc2C(F)(F)F)c1)c1ccc(F)cc1 (stereo not drawn) [6-505]
≥ 70%: pest or weed control at 1 ppm (Plutella xylostella) | pest or weed control at 1 ppm (Spodoptera litura) | pest or weed control at 1 ppm (Adoxophyes honmai) | pest or weed control at 100 ppm (Musca domestica) | pest or weed control at 1 ppm (Helicoverpa armigera)

CN(C(=O)c1cccc(F)c1)c1cccc(C(=O)Nc2c(I)cc(C(F)(C(F)(F)F)C(F)(F)C(F)(F)F)cc2C(F)(F)F)c1 (stereo not drawn) [7-504]
≥ 70%: pest or weed control at 1 ppm (Plutella xylostella) | pest or weed control at 1 ppm (Spodoptera litura) | pest or weed control at 1 ppm (Choristoneura magnanima) | pest or weed control at 100 ppm (Musca domestica)

O=C(Nc1c(I)cc(C(F)(C(F)(F)F)C(F)(F)C(F)(F)F)cc1C(F)(F)F)c1cccc(NC(=O)c2c(F)cccc2F)c1 (stereo not drawn) [6-524]
≥ 70%: pest or weed control at 1 ppm (Plutella xylostella) | pest or weed control at 1 ppm (Spodoptera litura) | pest or weed control at 1 ppm (Adoxophyes honmai) | pest or weed control at 100 ppm (Musca domestica) | pest or weed control at 1 ppm (Helicoverpa armigera)

CN(C(=O)c1cccc(C#N)c1)c1cccc(C(=O)Nc2c(I)cc(C(F)(C(F)(F)F)C(F)(F)C(F)(F)F)cc2C(F)(F)F)c1 (stereo not drawn) [7-522]
≥ 70%: pest or weed control at 1 ppm (Plutella xylostella) | pest or weed control at 1 ppm (Spodoptera litura) | pest or weed control at 1 ppm (Adoxophyes honmai) | pest or weed control at 100 ppm (Musca domestica) | pest or weed control at 1 ppm (Helicoverpa armigera)

CN(C(=O)c1ccc(C#N)cc1)c1cccc(C(=O)Nc2c(I)cc(C(F)(C(F)(F)F)C(F)(F)C(F)(F)F)cc2C(F)(F)F)c1F (stereo not drawn) [7-1829]
≥ 70%: pest or weed control at 1 ppm (Plutella xylostella) | pest or weed control at 100 ppm (Laodelphax striatellus) | pest or weed control at 1 ppm (Spodoptera litura) | pest or weed control at 1 ppm (Choristoneura magnanima) | pest or weed control at 100 ppm (Musca domestica) | pest or weed control at 1 ppm (Helicoverpa armigera)

CN(C(=O)c1ccc(C#N)cc1)c1cccc(C(=O)Nc2c(I)cc(C(F)(C(F)(F)F)C(F)(F)C(F)(F)F)cc2I)c1F (stereo not drawn) [7-1359]
≥ 70%: pest or weed control at 1 ppm (Plutella xylostella) | pest or weed control at 100 ppm (Laodelphax striatellus) | pest or weed control at 1 ppm (Spodoptera litura) | pest or weed control at 1 ppm (Choristoneura magnanima) | pest or weed control at 100 ppm (Musca domestica) | pest or weed control at 1 ppm (Helicoverpa armigera)

O=C(Nc1cccc(C(=O)Nc2c(I)cc(C(F)(C(F)(F)F)C(F)(F)C(F)(F)F)cc2C(F)(F)F)c1F)c1ccccc1 (stereo not drawn) [6-1808]
≥ 70%: pest or weed control at 1 ppm (Plutella xylostella) | pest or weed control at 100 ppm (Laodelphax striatellus) | pest or weed control at 1 ppm (Spodoptera litura) | pest or weed control at 100 ppm (Musca domestica) | pest or weed control at 1 ppm (Helicoverpa armigera)

N#Cc1ccc(C(=O)Nc2cccc(C(=O)Nc3c(I)cc(C(F)(C(F)(F)F)C(F)(F)F)cc3I)c2F)cc1 [6-1281]
≥ 70%: pest or weed control at 1 ppm (Plutella xylostella) | pest or weed control at 100 ppm (Laodelphax striatellus) | pest or weed control at 1 ppm (Spodoptera litura) | pest or weed control at 100 ppm (Musca domestica) | pest or weed control at 1 ppm (Helicoverpa armigera)

O=C(Nc1cccc(C(=O)Nc2c(Br)cc(C(F)(C(F)(F)F)C(F)(F)C(F)(F)F)cc2C(F)(F)F)c1F)c1cccnc1Cl (stereo not drawn) [6-1688]
≥ 70%: pest or weed control at 1 ppm (Plutella xylostella) | pest or weed control at 100 ppm (Laodelphax striatellus) | pest or weed control at 1 ppm (Spodoptera litura) | pest or weed control at 1 ppm (Adoxophyes honmai)

O=C(Nc1c(I)cc(C(F)(C(F)(F)F)C(F)(F)F)cc1C(F)(F)F)c1cccc(NC(=O)c2ccc(F)cc2Cl)c1 [6-449]
≥ 70%: pest or weed control at 1 ppm (Plutella xylostella) | pest or weed control at 1 ppm (Spodoptera litura) | pest or weed control at 1 ppm (Adoxophyes honmai) | pest or weed control at 1 ppm (Helicoverpa armigera)

CN(C(=O)c1ccc(C#N)cc1)c1cccc(C(=O)Nc2c(I)cc(C(F)(C(F)(F)F)C(F)(F)F)cc2I)c1F [7-1281]
≥ 70%: pest or weed control at 1 ppm (Plutella xylostella) | pest or weed control at 100 ppm (Laodelphax striatellus) | pest or weed control at 1 ppm (Spodoptera litura) | pest or weed control at 1 ppm (Choristoneura magnanima)

O=C(Nc1cccc(C(=O)Nc2c(I)cc(C(F)(C(F)(F)F)C(F)(F)F)cc2I)c1F)c1cccc(F)c1 [6-1262]
≥ 70%: pest or weed control at 1 ppm (Plutella xylostella) | pest or weed control at 100 ppm (Laodelphax striatellus) | pest or weed control at 1 ppm (Spodoptera litura) | pest or weed control at 1 ppm (Adoxophyes honmai) | pest or weed control at 1 ppm (Helicoverpa armigera)

N#Cc1cccc(C(=O)Nc2cccc(C(=O)Nc3c(I)cc(C(F)(C(F)(F)F)C(F)(F)C(F)(F)F)cc3C(F)(F)F)c2)c1 (stereo not drawn) [6-522]
≥ 70%: pest or weed control at 1 ppm (Plutella xylostella) | pest or weed control at 1 ppm (Spodoptera litura) | pest or weed control at 1 ppm (Adoxophyes honmai) | pest or weed control at 100 ppm (Musca domestica) | pest or weed control at 1 ppm (Helicoverpa armigera)

CN(C(=O)c1c(F)cccc1F)c1cccc(C(=O)Nc2c(Br)cc(C(F)(C(F)(F)F)C(F)(F)C(F)(F)F)cc2C(F)(F)F)c1 (stereo not drawn) [7-368]
≥ 70%: pest or weed control at 1 ppm (Plutella xylostella) | pest or weed control at 100 ppm (Laodelphax striatellus) | pest or weed control at 1 ppm (Spodoptera litura) | pest or weed control at 100 ppm (Musca domestica)

CN(C(=O)c1ccc(C#N)cc1F)c1cccc(C(=O)Nc2c(Br)cc(C(F)(C(F)(F)F)C(F)(F)F)cc2C(F)(F)F)c1F [7-1606]
≥ 70%: pest or weed control at 1 ppm (Plutella xylostella) | pest or weed control at 100 ppm (Laodelphax striatellus) | pest or weed control at 1 ppm (Spodoptera litura) | pest or weed control at 10 ppm (Choristoneura magnanima; concentration 10 ppm) | pest or weed control at 1 ppm (Helicoverpa armigera)

O=C(Nc1cccc(C(=O)Nc2c(I)cc(C(F)(C(F)(F)F)C(F)(F)C(F)(F)F)cc2C(F)(F)F)c1)c1cccc(F)c1 (stereo not drawn) [6-504]
≥ 70%: pest or weed control at 1 ppm (Plutella xylostella) | pest or weed control at 1 ppm (Spodoptera litura) | pest or weed control at 1 ppm (Adoxophyes honmai) | pest or weed control at 100 ppm (Musca domestica) | pest or weed control at 1 ppm (Helicoverpa armigera)

CN(C(=O)c1ccc(C#N)cc1)c1cccc(C(=O)Nc2c(I)cc(C(F)(C(F)(F)F)C(F)(F)F)cc2C(F)(F)F)c1F [7-1751]
≥ 70%: pest or weed control at 1 ppm (Plutella xylostella) | pest or weed control at 100 ppm (Laodelphax striatellus) | pest or weed control at 1 ppm (Spodoptera litura) | pest or weed control at 1 ppm (Helicoverpa armigera)

N#Cc1cccc(C(=O)Nc2cccc(C(=O)Nc3c(Br)cc(C(F)(C(F)(F)F)C(F)(F)C(F)(F)F)cc3Br)c2F)c1 (stereo not drawn) [6-1202]
≥ 70%: pest or weed control at 1 ppm (Plutella xylostella) | pest or weed control at 100 ppm (Laodelphax striatellus) | pest or weed control at 1 ppm (Spodoptera litura) | pest or weed control at 1 ppm (Adoxophyes honmai)
